Test: Animal Experiment 2: whole cholesterol in hypercholesterolemia rats (Zurkowski's method)
Assay type: in vivo, rats of Wistar descent
Conditions: male Wistar rats on cholesterol feed, five days; composite oral 75 μg monoiodohistidine/day/rat, contrast groups equal iodine amount; control group 335
Procedure: A test groups consisted of ten heads of male rats of Wistar descent, which weighed about 120 g. The test group was fed in a cage at 24±1° C. of temperature and at 50 to 60% of humidity. […] The composite to be tested was made from the yolk of egg of the egg-laying hens to which calcium iodate was fed. The composite was dissolved in distilled water, and then orally dosed to the rats by means of a stomach probe at the rate of 75 μg of monoiodohistidine per day per rat for five days in parallel with feeding of the cholesterol containing feed. The rats were caused to fast for a night after composite dosing was finished, and next morning blood was taken from fundus of the rat's eyes in order to measure the amount of whole cholesterol by Zurkowski's method.
A control group, a contrast group (1) and a contrast group (2) equally consisted of rats which got hypercholesterolemia by the same process as mentioned in the test group. While potassium iodide was dosed to the contrast group (1) so that the iodine amount would be equal to that of the test group, iodo-lecithin was dosed to the contrast group (2) so that the iodine amount would be equal to that of the test group. On the other hand, no iodine agent or compound was dosed to the control group. And, as to the rats of these groups, the amount of whole cholesterol was measured by the same method as mentioned in the test group.

| Compound | Amount of whole Cholesterol [mg/dL] |
| --- | --- |
| [I-].[K+] [potassium iodide] | 323 |
| iodo-lecithin | 325 |
